Results as given in patent publication US20220251079A1, “BENZO[B][1,8]NAPHTHYRIDINE ACETIC ACID DERIVATIVES AND METHODS OF USE” (STINGTHERA, INC., priority 2019, published 2022).

Legend:
[1] = molecular target: T1, human STING protein (140-379) (Homo sapiens, UniProt Q86WV6, H232R); experiment: Radiometric filtration binding competition assay (WT_FBA_HIS-SUMO-hSWAT); details: read-out: WT-hSWAT IC50
T1 construct: 6XHIS-SUMO-hSTING (140-379); made in house; host or cells: BL-21(DE3) E. coli, pET vector
T1 sequence (Q86WV6 140-379 H232R): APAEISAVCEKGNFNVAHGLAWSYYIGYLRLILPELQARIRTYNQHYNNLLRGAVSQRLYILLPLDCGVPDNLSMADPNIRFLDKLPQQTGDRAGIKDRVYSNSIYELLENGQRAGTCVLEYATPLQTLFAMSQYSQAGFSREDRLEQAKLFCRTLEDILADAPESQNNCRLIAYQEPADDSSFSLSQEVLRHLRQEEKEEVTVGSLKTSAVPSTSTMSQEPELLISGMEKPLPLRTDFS
Protocol: A radiometric filtration binding competition assay was performed to quantify the binding affinity of compounds of the present application for the human or mouse STING protein, or associated HAQ human isoform. The competition format filtration binding assay detects the ability of small molecule compounds from binding to and inhibiting the subsequent binding of a tritiated [H3] […] The resulting dose response was fit by non-linear regression to determine an IC50 value, from which a Ki value for each compound was extrapolated.
Briefly, the recombinant C-terminal ligand binding domain of the human STING protein (140-379) or mouse STING protein (139-328) [0.5 μM] was incubated in the presence of a compound of the present application (8 point, 2 fold dilution starting at 300 μM) for 30 min or under control conditions. […] The resulting complexes were then filtered, dried, and scintillation fluid was added and the remaining radio signal was measured to determine the degree of compound ligand inhibition. This assay format was optimized for both the WT and HAQ isoforms of the human protein and the mouse orthologue protein.
Parameters optimized: • a. Form of protein: 6×HIS-SUMO tag or untagged • b. Concentration of target protein: Minimum concentration that achieved >80 max signal • c. Assay DMSO concentration: 10%-0.1% • d. Assay Buffer: Base (Tris or phosphate), Salt concentration, +/−Tween (0.1-2%) • e. […] Probe Concentration: Minimum concentration that achieved max assay window • g. Assay Format: Scintillation Proximity Bead or Filtration Binding Plate • h. Assay Plate: 384 vs 96 well format • i. Assay incubation times for successive incubation steps
WT-hSWAT: WT_FBA_HIS-SUMO-hSWAT IC50 (μM) (“WT”=Wild-type); and WT-mSWAT: MOUSE_FBA_HIS-SUMO-mSWAT C50 (μM) which is the mouse isoform of STING protein.

hSTING-R232 = molecular target: T2, hSTING-R232 (Homo sapiens, UniProt Q86WV6, H232R); experiment: STING Differential Scanning Fluorimetry (DSF) assay, human; type: binding; details: human STING R232-WT, 5 μM protein
T2 construct: recombinant mouse or human STING protein (aa140-379); 6xHis-SUMO elsewhere) (cleaved yes); made in house
T2 sequence (Q86WV6 140-379 H232R): as above
Protocol: A STING DSF assay was performed to determine protein thermostability shift in response to small molecule ligand binding. A STING thermostability shift assay based on differential scanning fluorimetry was used to measure (1) the net shift in melting temperature (ΔTm)between the apo and ligand-bound states of the STING protein and (2) the concentration of the thermal denaturation transition (FC50) as a surrogate measure of binding affinity (Kd). Briefly, recombinant mouse or human STING protein (aa140-379) comprising the C-terminal binding domain (R232-WT) were purified by affinity chromatography and further processed to remove the purification tag, followed by gel filtration to achieve purity >95%. Protein in assay buffer was transferred to a 384 well plate and incubated with the hydrophobic fluorescent dye SYBR Orange. A temperature ramp was applied to the plate and the resulting dye fluorescence was plotted as a function of temperature. The first derivative of this function (dF/dT) was then used to extrapolate the melting temperature of the protein at various concentrations of compound and determine the thermal denaturation profile of a protein/compound complex.
2. 5 μM purified Target STING Protein
4. Buffer: 100 mM NaCl, 30 mM HEPES, pH 7.5
5. Thermal Ramp: 0.5° C./min
7. 11 point, 2 fold dilution, duplicate, 300 μM high concentrations

STING protein = molecular target: T3, STING protein (Homo sapiens, UniProt Q86WV6, H232R); experiment: Cell based reporter assay of IRF activation (THP1-dual-KI R232, IRF luciferase); details: THP-1; read-out: THP1-dual-KI R232_IRF(Luciferase)_Activity Maximum measured (%)
T3 construct: host or cells: THP-1 dual reporter cells, TMEM173 modified from HAQ to R232 (THP1-dual-KI R232)
T3 sequence (Q86WV6 whole entry H232R): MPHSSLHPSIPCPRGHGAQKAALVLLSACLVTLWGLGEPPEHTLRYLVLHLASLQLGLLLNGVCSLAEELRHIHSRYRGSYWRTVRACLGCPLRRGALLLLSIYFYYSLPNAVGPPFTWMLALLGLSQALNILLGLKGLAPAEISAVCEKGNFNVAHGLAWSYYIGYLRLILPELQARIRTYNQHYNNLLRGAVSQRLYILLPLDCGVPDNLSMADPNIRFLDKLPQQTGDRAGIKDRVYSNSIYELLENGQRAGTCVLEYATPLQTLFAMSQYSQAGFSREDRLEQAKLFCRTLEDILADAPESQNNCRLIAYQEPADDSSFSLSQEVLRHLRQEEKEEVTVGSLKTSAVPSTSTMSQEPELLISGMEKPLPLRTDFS
Source text: Cell reporter assays were developed to measure the ability of compounds of the application to activate the STING protein and activate both IRF/IFN and the NFkB signaling pathways in the myeloid derived cell line THP-1, which is commercially available from several suppliers. Briefly, THP-1 monocytes were transfected and selected for stable integration of 2 reporter constructs. Clones incorporating stably integrated vectors were further selected by antibiotic resistance to blastocidin and zeocin. The reporter constructs included: (1) firefly luciferase reporter gene under the control of an ISG54 promoter fused to five interferon (IFN)-stimulated response elements to measure IRF transcription factor binding activity and (2) secreted embryonic alkaline phosphatase reporter gene under transcription control of an IFN-beta minimal promoter fused to 5 copies of the NFkB consensus transcriptional response element and 3 copies of the c-Rel binding site.
The resulting THP-1 cell line was further modified to incorporate 3 amino acid point mutations (H71R A230G Q293R). This modification of the native TMEM173 gene in THP-1 cells (HAQ) was designed to produce a cell reporter that expressed the most common allelic variant in the human population (THP-1 R232, available from InvivoGen). Alternatively, the TMEM173 gene was knocked out to provide a congenic control to counter-screen for compound activation that was independent of the STING protein (THP-1 STING KO).
Once cell lines were established, reporter assay protocols were developed and optimized to screen small molecule compounds for agonist activity. Assay optimization for efficacy and Z′ value included titration of the following parameters:
1. No pre-activation with PMA
2. […]cells/well in 96 well plate format
7. Cell Titer Glo reagent (Promega) following supermatant removal
9. 8 point, 2 fold, duplicate starting at 150 μM PP28T

IC50 [1] [µM] | WT_DSF_hSWAT Tm Shift (° C.) (hSTING-R232) | Emax (STING protein) [%] | SMILES
20 to 100 | D (“D” > 7° C.) | > 50 | CSc1c(Cl)ccc2c(=O)c3ccc(N(C)C4CC(F)(F)C4)nc3n(CC(=O)O)c12 [Compound 41, Sodium 2-(8-chloro-2-((3,3-difluorocyclobutyl)(methyl)amino)-9-(methylthio)-5-oxobenzo[b][1,8]naphthyridin-10(5H)-yl)acetate]
20 to 100 | D (“D” > 7° C.) | > 50 | CSc1c(Cl)ccc2c(=O)c3ccc(N(CC4CC4)C4CC(F)(F)C4)nc3n(CC(=O)O)c12 [Compound 42, sodium 2-(8-chloro-2-((cyclopropylmethyl)(3,3-difluorocyclobutyl)amino)-9-(methylthio)-5-oxobenzo[b][1,8]naphthyridin-10(5H)-yl)acetate]
< 20 | D (“D” > 7° C.) | > 50 | CO[C@H]1C[C@@H](N(CC2CC2)c2ccc3c(=O)c4ccc(Cl)c(SC)c4n(CC(=O)O)c3n2)C1 [Compound 43, sodium 2-(8-chloro-2-((cyclopropylmethyl)(3-methoxycyclobutyl)amino)-9-(methylthio)-5-oxobenzo[b][1,8]naphthyridin-10(5H)-yl)acetate]
< 20 | D (“D” > 7° C.) | > 50 | CSc1c(Cl)ccc2c(=O)c3ccc(N(CC4CC4)C4CC(OC(F)F)C4)nc3n(CC(=O)O)c12 (stereo not drawn) [Compound 46, sodium 2-(8-chloro-2-((cyclopropylmethyl)(3-(difluoromethoxy)cyclobutyl)amino)-9-(methylthio)-5-oxobenzo[b][1,8]naphthyridin-10(5H)-yl)acetate]
< 20 | D (“D” > 7° C.) | > 50 | CSc1c(Cl)ccc2c(=O)c3ccc(N(C)C4CC5(CCC5)C4)nc3n(CC(=O)O)c12 [Compound 47, sodium 2-(8-chloro-2-(methyl(spiro[3.3]heptan-2-yl)amino)-9-(methylthio)-5-oxobenzo[b][1,8]naphthyridin-10(5H)-yl)acetate]
20 to 100 | D (“D” > 7° C.) | > 50 | CSc1c(Cl)ccc2c(=O)c3ccc(NCC4CC(F)(F)C4)nc3n(CC(=O)O)c12 [Compound 54, Sodium 2-(8-chloro-2-(((3,3-difluorocyclobutyl)methyl)amino)-9-(methylthio)-5-oxobenzo[b][1,8]naphthyridin-10(5H)-yl)acetate]

Second part, the compound before the results:

SMILES | IC50 [1] [µM] | WT_DSF_hSWAT Tm Shift (° C.) (hSTING-R232) | Emax (STING protein) [%]
CSc1c(Cl)ccc2c(=O)c3ccc(N(C)C4CC(OC(F)F)C4)nc3n(CC(=O)O)c12 (stereo not drawn) [Compound 45, Sodium 2-(8-chloro-2-((3-(difluoromethoxy)cyclobutyl)(methyl)amino)-9-(methylthio)-5-oxobenzo[b][1,8]naphthyridin-10(5H)-yl)acetate] | 20 to 100 | D (“D” > 7° C.) | > 50
CSc1c(Cl)ccc2c(=O)c3ccc(N(C)C4CC(C)(C)C4)nc3n(CC(=O)O)c12 [Compound 48, sodium 2-(8-chloro-2-((3,3-dimethylcyclobutyl)(methyl)amino)-9-(methylthio)-5-oxobenzo[b][1,8]naphthyridin-10(5H)-yl)acetate] | < 20 | D (“D” > 7° C.) | > 50
CSc1c(Cl)ccc2c(=O)c3ccc(N(C)C4CC(C#N)C4)nc3n(CC(=O)O)c12 (stereo not drawn) [Compound 49, sodium 2-(8-chloro-2-((3-cyanocyclobutyl)(methyl)amino)-9-(methylthio)-5-oxobenzo[b][1,8]naphthyridin-10(5H)-yl)acetate] | 20 to 100 | D (“D” > 7° C.) | > 50
COCCN(CC(F)(F)F)c1ccc2c(=O)c3ccc(Cl)c(SC)c3n(CC(=O)O)c2n1 [Compound 50, sodium 2-(8-chloro-2-((2-methoxyethyl)(2,2,2-trifluoroethyl)amino)-9-(methylthio)-5-oxobenzo[b][1,8]naphthyridin-10(5H)-yl)acetate] | 20 to 100 | D (“D” > 7° C.) | > 50
COCCN(CC(F)F)c1ccc2c(=O)c3ccc(Cl)c(SC)c3n(CC(=O)O)c2n1 [Compound 51, sodium 2-(8-chloro-2-((2,2-difluoroethyl)(2-methoxyethyl)amino)-9-(methylthio)-5-oxobenzo[b][1,8]naphthyridin-10(5H)-yl)acetate] | 20 to 100 | D (“D” > 7° C.) | > 50
CCOc1c(Cl)ccc2c(=O)c3ccc(N(CCOC)CC(F)F)nc3n(CC(=O)O)c12 [Compound 52, sodium 2-(8-chloro-2-((2,2-difluoroethyl)(2-methoxyethyl)amino)-9-ethoxy-5-oxobenzo[b][1,8]naphthyridin-10(5H)-yl)acetate] | 100 to 300 | C (“C” = 2-7° C.) | > 50
CN(C)c1c(Cl)ccc2c(=O)c3ccc(NCC4CC(F)(F)C4)nc3n(CC(=O)O)c12 [Compound 53, Sodium 2-(8-chloro-2-(((3,3-difluorocyclobutyl)methyl)amino)-9-(dimethylamino)-5-oxobenzo[b][1,8]naphthyridin-10(5H)-yl)acetate] | < 20 | D (“D” > 7° C.) | > 50
CSc1c(Cl)ccc2c(=O)c3ccc(NCC4COC4)nc3n(CC(=O)O)c12 [Compound 55, sodium 2-(8-chloro-9-(methylthio)-2-((oxetan-3-ylmethyl)amino)-5-oxobenzo[b][1,8]naphthyridin-10(5H)-yl)acetate] | 20 to 100 | D (“D” > 7° C.) | > 50
CSc1c(Cl)ccc2c(=O)c3ccc(NC4CC(C#N)C4)nc3n(CC(=O)O)c12 (stereo not drawn) [Compound 56, sodium 2-(8-chloro-2-((3-cyanocyclobutyl)amino)-9-(methylthio)-5-oxobenzo[b][1,8]naphthyridin-10(5H)-yl)acetate] | < 20 | D (“D” > 7° C.) | > 50
CSc1c(Cl)ccc2c(=O)c3ccc(Nc4ccccc4F)nc3n(CC(=O)O)c12 [Compound 57, sodium 2-(8-chloro-2-((2-fluorophenyl)amino)-9-(methylthio)-5-oxobenzo[b][1,8]naphthyridin-10(5H)-yl)acetate] | < 20 | D (“D” > 7° C.) | > 50
